For data set [1], the system named is CHK1 half-life in HL60 cells. Put plainly: CHK1 half-life with cycloheximide in HL60 cells. In kind it is cell-based, Human. On the procedure:
To complete, experiments were performed to test whether the half-life of CHK1 is regulated by USP7 in leukemic cells. To this end, HL60 cells were treated with P22077 and the half-life of CHK1 was measured in the presence of 50 μg/mL cycloheximide (CHX) to inhibit protein biogenesis.

A further data set deals with primary AML cells. Put plainly: Colony formation of primary AML blast cells in methylcellulose-based semi-solid medium. Type of data set: cell-based, Human. As to conditions: for colony formation, effect on cytarabine sensitivity: 10 nM cytarabine + 5 μM P22077, 7 days. How it is done:
(§1) B: HL-60 cells were treated as indicated for 24 h. […] Statistical analysis was performed by unpaired t-test (n=4). *P≤0.05 and **P≤0.01. […] Colony formation was assessed after 7 days and represented as the ratio of the number of clones between untreated and treated conditions. For statistical analyses, unpaired Wilcoxon test was used. *P≤0.05, and ns=not significant.
(§2) To explore the possibility that USP7 by modulating CHK1 stability USP7 participates in the chemoresistance of leukemic cells, we examined the capacity of USP7 inhibition to sensitize HL60 and OCI-AML3 cells to cytarabine treatment. […] We then quantified the capacity of primary AML cells to form colonies in methylcellulose-based semi-solid medium, when exposed to clinical relevant concentrations (10 nM) of cytarabine combined with the P22077 inhibitor (FIG. 5D-5E).

Data set [2] deals with CHK1 protein levels in HL-60 cells. Nature of the data set: CHK1 protein level by western blot in HL-60 cells. Type of data set: cell-based, Human. The settings on record: HL-60 cells (p53 null), P22077 at 10, visible from 8 h to 24 h of treatment. On the procedure:
(§3) FIG. 2: USP7 inhibition decreases CHK1 protein level. […] Actin was used as loading control. Normalization was performed using CTL siRNA condition as reference. […] B: HL-60 cells were treated with USP7 inhibitor (P22077) at 10 and harvested at the indicated times, followed by western blotting for CHK1. […] The amount of CHK1 at t=0 h was set to 1. […] C: OCI-AML3 cells were treated with USP7 inhibitor (P22077) at 10 μM and harvested at the indicated times, followed by western blotting for CHK1 protein. Graph represent the quantification of CHK1 protein levels normalized to actin loading control from 3 independent experiments. Statistical analyses were performed as in B.
(§4) We then investigated whether USP7 could regulate CHK1 levels in leukemic cells. […] We then used P22077, an inhibitor of USP7 catalytic activity^34,35, to further monitor the impact of USP7 inhibition on CHK1 levels. […] We then asked whether p53 status could affect this response and reproduced these experiments on two AML cell lines, OCI-AML3 and HEL, which express wild-type p53 and high CHK1 protein levels (FIG. 1A and data not shown). […] Using an immunofluorescence approach, we also validated that approximately 50% of CHK1 protein signal disappears after 24 hours of USP7 inhibition (data not shown).
A general note: A western blot detects proteins with antibodies after separation by electrophoresis.

A further data set relates to OCI-AML3 cells. Put plainly: Cell death of OCI-AML3 cells, combination with cytarabine, annexinV flow cytometry. Type of data set: cell-based, Human. The settings on record: P22077 10 μM + AraC 1 μM, 24 h. How it is done: as §1, §2
Data set [3] deals with CHK1 protein level in OCI-AML3 cell line. Put plainly: CHK1 protein level by western blot in OCI-AML3 cells. In kind it is cell-based, Human. As to conditions: OCI-AML3 cells (wild-type p53), P22077 10 μM. On the procedure:
as §3
We then investigated whether USP7 could regulate CHK1 levels in leukemic cells. […] . We then asked whether p53 status could affect this response and reproduced these experiments on two AML cell lines, OCI-AML3 and HEL, which express wild-type p53 and high CHK1 protein levels (FIG. 1A and data not shown). […] . Using an immunofluorescence approach, we also validated that approximately 50% of CHK1 protein signal disappears after 24 hours of USP7 inhibition (data not shown).

For data set [4], the system named is CHK1 protein levels in HEL cells. Nature of the data set: CHK1 and p53 protein levels in HEL cells. Type of data set: cell-based, Human. The settings on record: data not shown.
Source text: as §4

Data set [5] deals with Peripheral Blood Mononuclear Cells (PBMC). Nature of the data set: Cell viability of PBMC, annexinV/cell viability staining by flow cytometry. The settings on record: normal PBMC (n=3), 10 μM P22077 for 24 h.
Another data set relates to CHK1 protein signal. Put plainly: Immunofluorescence of CHK1 protein signal. Type of data set: cell-based. As to conditions: after 24 hours of USP7 inhibition, data not shown.
Source text: as §4
We then investigated whether USP7 can regulate CHK1 protein level or its subcellular localization in leukemic cells. […] Using immunofluorescence, we also validated that approximately 50% of the CHK1 protein signal disappears after 24 hours of USP7 inhibition, without any changes in CHK1 subcellular localization (data not shown).

The next data set deals with HL-60 cells. Put plainly: Cell death of HL-60 cells, combination with cytarabine, annexinV flow cytometry. Type of data set: cell-based, Human. The settings on record: HL60 cells, 24 h. How it is done:
as §1, §2
A general note: Flow cytometry measures light scatter and fluorescence of single cells or particles in a stream.

The subject of the next data set is AML primary samples. Put plainly: Cell viability of AML primary samples, annexinV/cell viability staining by flow cytometry. The settings on record: three primary AML samples, 10 μM P22077 for 24 h.
Data set [6] has as its system CHK1 ubiquitination in HL60 cells. Nature of the data set: CHK1 immunoprecipitation and ubiquitin immunoblot in HL60 cells with MG132. Type of data set: cell-based, Human. The settings on record: in presence of proteasome inhibitor MG132, vs control condition. How it is done: To confirm that USP7 can regulates CHK1 protein level, endogenous CHK1 was immunoprecipitated from HL60 cells treated or not with P22077, in presence of the proteasome inhibitor MG132 to stabilize ubiquitinated forms of the protein. Immunoblotting of these fractions was performed and probed with an antibody against ubiquitin.

Data set [7] concerns OCI-AML3 cells engrafted in NSG mice. Nature of the data set: OCI-AML3 xenograft in NSG mice, overall survival. As to conditions: NSG mice engrafted with OCI-AML3, 30 mg/kg/day IP for 5 days, vs vehicle, p=0.0001.
Protocol: For statistical analysis, Mantel-Cox test was used. ***P≤0.001.
NOD/LtSz-SCID/IL-2Ry chain null (NSG) mice were bred at the UMS006 in Toulouse (France) using breeders obtained from Charles River. […] NSG mice were treated by i.p. injection of busulfan (20 mg/kg) on the day before the experiment. Mice were engrafted by injection of 2.10^6 OCI-AML3 cells into the tail vein. […] Mice were treated by daily intraperitoneal (IP) injection with AraC, P22077 or vehicle for 5 days. Overall mouse survival was established under these conditions.
OCI-AML3 resistant cells were injected into the tail vein of immunodeficient NSG mice to establish AML disease.
The target of a further data set is T1, CHK1 and USP7 (Homo sapiens, UniProt Q93009).
T1 construct: endogenous in cells; host or cells: HL-60 cells
T1 sequence (Q93009 whole entry): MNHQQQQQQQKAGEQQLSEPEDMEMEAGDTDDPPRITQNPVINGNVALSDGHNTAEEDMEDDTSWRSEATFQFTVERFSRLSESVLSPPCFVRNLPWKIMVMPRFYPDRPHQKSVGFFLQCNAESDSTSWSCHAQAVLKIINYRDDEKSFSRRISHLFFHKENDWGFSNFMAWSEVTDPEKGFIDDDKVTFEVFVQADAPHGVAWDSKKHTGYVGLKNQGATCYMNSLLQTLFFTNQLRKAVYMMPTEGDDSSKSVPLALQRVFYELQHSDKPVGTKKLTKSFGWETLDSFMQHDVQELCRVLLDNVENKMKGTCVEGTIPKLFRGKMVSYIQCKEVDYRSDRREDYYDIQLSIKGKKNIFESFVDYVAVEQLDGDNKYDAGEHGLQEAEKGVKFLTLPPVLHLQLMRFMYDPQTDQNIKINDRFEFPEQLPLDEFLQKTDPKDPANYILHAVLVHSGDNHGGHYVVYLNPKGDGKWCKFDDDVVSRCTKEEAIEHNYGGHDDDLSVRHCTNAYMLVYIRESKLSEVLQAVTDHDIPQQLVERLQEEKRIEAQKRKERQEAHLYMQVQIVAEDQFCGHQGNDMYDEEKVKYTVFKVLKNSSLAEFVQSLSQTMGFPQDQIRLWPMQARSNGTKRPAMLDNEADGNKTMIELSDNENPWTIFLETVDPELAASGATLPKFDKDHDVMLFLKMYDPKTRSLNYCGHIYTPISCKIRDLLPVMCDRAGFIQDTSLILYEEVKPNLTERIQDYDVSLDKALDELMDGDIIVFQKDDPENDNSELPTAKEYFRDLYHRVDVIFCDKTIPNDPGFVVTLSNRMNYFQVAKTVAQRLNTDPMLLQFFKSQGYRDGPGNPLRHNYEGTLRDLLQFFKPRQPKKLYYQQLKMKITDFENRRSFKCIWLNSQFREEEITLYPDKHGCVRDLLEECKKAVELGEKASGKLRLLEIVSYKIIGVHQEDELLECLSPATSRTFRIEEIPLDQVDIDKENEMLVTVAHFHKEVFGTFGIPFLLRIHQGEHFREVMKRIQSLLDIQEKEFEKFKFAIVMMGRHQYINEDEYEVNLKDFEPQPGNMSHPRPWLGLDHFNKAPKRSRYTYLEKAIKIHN
Nature of the data set: Proximity Ligation Assay (PLA) of CHK1 and USP7 in HL-60 cells. In kind it is cell-based. As to conditions: HL60 cells, drug treatment, untreated (NT) 1.07+/−0.07. On the procedure: as §1

Take `CC(=O)c1cc([N+](=O)[O-])c(Sc2ccc(F)cc2F)s1` [P22077, 1-[5-[(2,4-Difluorophenyl)thio]-4-nitro-2-thienyl]-ethanone]: the “half-life of CHK1 protein” value in data set [1] (50 μg/mL cycloheximide, after 6 hours of P22077 treatment) was “significantly shortened the half-life of CHK1 protein”. For the same compound, the “CHEK1 mRNA expression” value in data set [1] (P22077 treatment, data not shown) is listed as “without affecting CHEK1 mRNA expression”. The “colony formation, effect on cytarabine sensitivity” value in the data set with primary AML cells (high CHK1 primary AML cells (n=6)) is “potentiated the effects of cytarabine”; in the data set on primary AML cells (low CHK1 primary AML cells (n=3)), “did not modify the sensitivity to cytarabine”. Besides, the CHK1 protein levels result in [2] is “significant decrease of CHK1 protein levels”; in data set [4] (HEL cells (wild-type p53)), “similarly decreased CHK1 protein levels”. The “cell death in combination with cytarabine” value in the data set on OCI-AML3 cells and with HL-60 cells was “synergistically enhances cell death induced by cytarabine” throughout. Moreover, in [3], the CHK1 protein level result is “reduced CHK1 protein level”. The p53 protein levels result in [4] (HEL cells) was “without significant impact on p53 protein levels”. Further, the values for the cell viability result (in data set [5]; in the data set with AML primary samples) were “largely unaffected” and “significantly reduced cell viability”, respectively. Further, in the data set with CHK1 protein signal, the “CHK1 protein signal that disappears (immunofluorescence)” value was “approximately 50%”. In addition, the CHK1 ubiquitination result in data set [6] was “more abundantly ubiquitinated”. Also, the overall mouse survival entry in data set [7] is “significantly improved overall mouse survival”.
As to `Nc1ccn([C@@H]2O[C@H](CO)[C@@H](O)[C@@H]2O)c(=O)n1` [cytarabine], the “colony formation, resistance of high CHK1 cells compared to low CHK1 cells” value in the data set with primary AML cells (10 nM cytarabine alone, 7 days) was “significantly more resistant to cytarabine”. Moreover, the “PLA foci per cell, co-staining of CHK1 and USP7 (mean +/- s.e.m.)” value at CHK1 and USP7 is listed as “significant proximity between the two proteins”; at CHK1 and USP7 (listed as AraC), 3.31+/−0.21 foci/cell.

Values taken from patent publication US20220125760A1, “USE OF USP7 INHIBITORS FOR THE TREATMENT OF ACUTE MYELOID LEUKEMIA (AML)” (INSERM (Institut National de la Santé et de la Recherche …, priority 2019, published 2022).
